pIC50: −log10 of the molar value.
What was measured:
[1] = system: cultured human mast cells (CHMC); test: CHMC low cell density IgE activation: tryptase and LTC4 assays; assay type: cell-based; settings: Low Density CHMC, anti-IgE activation, tryptase readout, read-out: CHMC anti-IgE Tryptase
Outline: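 Degranulation measured after 30 min anti-IgE challenge at 37° C of CHMC plated at 1000-1500 cells/well following 1 h preincubation. Readouts: LTC4 by ELISA on donor-specific diluted supernatants, and tryptase activity from a 30 min room-temperature substrate reaction.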

[2] = system: cultured human mast cells (CHMC); test: CHMC low cell density ionomycin activation: tryptase assay; assay type: cell-based; settings: Low Density CHMC, ionomycin activation, tryptase readout, read-out: CHMC Ionomycin Tryptase

SMILES	pIC50 ([1]; Homo sapiens, Mast cell)	pIC50 ([2]; Homo sapiens, Mast cell)	pIC50 [1]	pIC50 [2]
N#Cc1cnc(Nc2cccc(O)c2)nc1Nc1cccc(O)c1 [Compound R925774, N2,N4-Bis(3-hydroxyphenyl)-5-cyano-2,4-pyrimidinediamine]	6.36	< 5.00		
Fc1cnc(Nc2ccc3c(c2)OCO3)nc1Nc1ccc2c(c1)OCO2 [Compound R925776, N2,N4-Bis(3,4-methylenedioxyphenyl)-5-fluoro-2,4-pyrimidinediamine]	5.68	< 5.00		
Oc1cccc(Nc2ncc(-c3ccccc3)c(Nc3cccc(O)c3)n2)c1 [Compound R925783, N2,N4-Bis(3-hydroxyphenyl)-5-phenyl-2,4-pyrimidinediamine]	5.54	< 5.00		
c1ccc(-c2cnc(Nc3ccc4c(c3)OCCO4)nc2Nc2ccc3c(c2)OCCO3)cc1 [Compound R925784, N2,N4-Bis(3,4-ethylenedioxyphenyl)-5-phenyl-2,4-pyrimidinediamine]	5.49	< 5.00		
c1coc(-c2cnc(Nc3ccc4c(c3)OCCO4)nc2Nc2ccc3c(c2)OCCO3)c1 [Compound R925785, N2,N4-Bis(3,4-ethylenedioxyphenyl)-5-(2-furanyl)-2,4-pyrimidinediamine]	5.60	< 5.00		
Clc1ccc(-c2cnc(Nc3ccc4c(c3)OCCO4)nc2Nc2ccc3c(c2)OCCO3)cc1 [Compound R925786, N2,N4-Bis(3,4-ethylenedioxyphenyl)-5-(4-chlorophenyl)-2,4-pyrimidinediamine]	5.73	< 5.00		
Clc1cccc(-c2cnc(Nc3ccc4c(c3)OCCO4)nc2Nc2ccc3c(c2)OCCO3)c1 [Compound R925787, N2,N4-Bis(3,4-ethylenedioxyphenyl)-5-(3-chlorophenyl)-2,4-pyrimidinediamine]	5.05	< 5.00		
Oc1cccc(Nc2ncc(-c3ccc4c(c3)OCO4)c(Nc3cccc(O)c3)n2)c1 [Compound R925788, N2,N4-Bis(3-hydroxyphenyl)-5-(3,4-methylenedioxyphenyl)-2,4-pyrimidinediamine]	5.62	< 5.00		
Oc1ccc(CCNc2ccnc(NCCc3ccc(O)cc3)n2)cc1 [Compound R925790, N2,N4-Bis[2-(4-hydroxyphenyl)ethyl]-2,4-pyrimidinediamine]	< 5.00	< 5.00		
Oc1ccc(CCNc2ncc(F)c(NCCc3ccc(O)cc3)n2)cc1 [Compound R925791, N2,N4-Bis[2-(4-hydroxyphenyl)ethyl]-5-fluoro-2,4-pyrimidinediamine]	< 5.00	< 5.00		
Oc1ccc(CCNc2ncc(Br)c(NCCc3ccc(O)cc3)n2)cc1 [Compound R925792, N2,N4-Bis[2-(4-hydroxyphenyl)ethyl]-5-bromo-2,4-pyrimidinediamine]	5.20	< 5.00		
Fc1cnc(Nc2ccc3c(c2)OCCO3)nc1NC1CCCCC1 [Compound R925794, N4-Cyclohexyl-N2-(3,4-ethylenedioxyphenyl)-5-fluoro-2,4-pyrimidinediamine]	< 5.00	< 5.00		
O=C(O)C1CCC(Nc2nc(Nc3ccc4c(c3)OCCO4)ncc2F)CC1 (stereo not shown) [Compound R925795, N4-(4-Carboxycyclohexyl)-N2-(3,4-ethylenedioxyphenyl)-5-fluoro-2,4-pyrimidinediamine]	< 5.00	< 5.00		
Brc1cnc(Nc2ccccc2-c2ccccc2)nc1Nc1ccccc1-c1ccccc1 [Compound R925798, N2,N4-Bis(2-phenylphenyl)-5-bromo-2,4-pyrimidinediamine]	< 5.00	< 5.00		
COc1ccc(-c2ccccc2)cc1Nc1ncc(Br)c(Nc2cc(-c3ccccc3)ccc2OC)n1 [Compound R925799, N2,N4-Bis(2-methoxy-5-phenylphenyl)-5-bromo-2,4-pyrimidinediamine]	< 5.00	< 5.00		
Cc1ccc(-c2ccccc2)cc1Nc1ncc(Br)c(Nc2cc(-c3ccccc3)ccc2C)n1 [Compound R925800, N2,N4-Bis(2-methyl-5-phenylphenyl)-5-bromo-2,4-pyrimidinediamine]	< 5.00	< 5.00		
COc1cc(-c2ccccc2)c(C)cc1Nc1ncc(Br)c(Nc2cc(C)c(-c3ccccc3)cc2OC)n1 [Compound R925801, N2,N4-Bis(2-methoxy-5-methyl-4-phenylphenyl)-5-bromo-2,4-pyrimidinediamine]	< 5.00	< 5.00		
COc1ccc(Nc2ncc(Br)c(Nc3ccc(OC)c(-c4ccccc4)c3)n2)cc1-c1ccccc1 [Compound R925802, N2,N4-Bis(4-methoxy-3-phenylphenyl)-5-bromo-2,4-pyrimidinediamine]	< 5.00	< 5.00		
Brc1cnc(Nc2cccc(-c3ccccc3)c2)nc1Nc1cccc(-c2ccccc2)c1 [Compound R925803, N2,N4-Bis(3-phenylphenyl)-5-bromo-2,4-pyrimidinediamine]	< 5.00	< 5.00		

SMILES	pIC50 ([1]; Homo sapiens, Mast cell)	pIC50 ([2]; Homo sapiens, Mast cell)	pIC50 [1]	pIC50 [2]
c1ccc(-c2ccccc2Nc2ccnc(Nc3ccccc3-c3ccccc3)n2)cc1 [Compound R925804, N2,N4-Bis(2-phenylphenyl)-2,4-pyrimidinediamine]	< 5.00	< 5.00		
COc1ccc(-c2ccccc2)cc1Nc1ccnc(Nc2cc(-c3ccccc3)ccc2OC)n1 [Compound R925805, N2,N4-Bis(2-methoxy-5-phenylphenyl)-2,4-pyrimidinediamine]	< 5.00	< 5.00		
COc1ccc(Nc2ccnc(Nc3ccc(OC)c(-c4ccccc4)c3)n2)cc1-c1ccccc1 [Compound R925806, N2,N4-Bis(4-methoxy-3-phenylphenyl)-2,4-pyrimidinediamine]	< 5.00	< 5.00		
Cc1ccc(-c2ccccc2)cc1Nc1ccnc(Nc2cc(-c3ccccc3)ccc2C)n1 [Compound R925807, N2,N4-Bis(2-methyl-5-phenylphenyl)-2,4-pyrimidinediamine]	< 5.00	< 5.00		
COc1cc(-c2ccccc2)c(C)cc1Nc1ccnc(Nc2cc(C)c(-c3ccccc3)cc2OC)n1 [Compound R925808, N2,N4-Bis(2-methoxy-5-methyl-4-phenylphenyl)-2,4-pyrimidinediamine]	< 5.00	< 5.00		
c1ccc(-c2cc(Nc3ccc4c(c3)OCCO4)nc(Nc3ccc4c(c3)OCCO4)n2)cc1 [Compound R925811, N2,N4-Bis(3,4-ethylenedioxyphenyl)-6-phenyl-2,4-pyrimidinediamine]	5.48	< 5.00		
Oc1cccc(Nc2cc(-c3ccccc3)nc(Nc3cccc(O)c3)n2)c1 [Compound R925812, N2,N4-Bis(3-hydroxyphenyl)-6-phenyl-2,4-pyrimidinediamine]	5.24	< 5.00		
COC(=O)c1ccc(-c2cnc(Nc3ccc4c(c3)OCCO4)nc2Nc2ccc3c(c2)OCCO3)cc1 [Compound R925813, N2,N4-Bis(3,4-ethylenedioxyphenyl)-5-(4-methoxycarbonylphenyl)-2,4-pyrimidinediamine]	< 5.00	< 5.00		
CCOC(=O)C(Nc1ncc(C#N)c(NC(C(=O)OCC)C(C)C)n1)C(C)C (stereo not shown) [Compound R925814, N2,N4-Bis(1-ethoxycarbonyl-2-methylpropyl)-5-cyano-2,4-pyrimidinediamine]	< 5.00	< 5.00		
COC(=O)C(CC(C)C)Nc1ncc(C#N)c(NC(CC(C)C)C(=O)OC)n1 (stereo not shown) [Compound R925815, N2,N4-Bis(1-methoxycarbonyl-3-methylbutyl)-5-cyano-2,4-pyrimidinediamine]	< 5.00	< 5.00		
Oc1ccc(-c2cnc(Nc3ccc4c(c3)OCCO4)nc2Nc2ccc3c(c2)OCCO3)cc1 [Compound R925816, N2,N4-Bis(3,4-ethylenedioxyphenyl)-5-(4-hydroxyphenyl)-2,4-pyrimidinediamine]	5.22	< 5.00		
COC(=O)c1ccc(CNc2ncc(C#N)c(NCc3ccc(C(=O)OC)cc3)n2)cc1 [Compound R925819, N2,N4-Bis(methoxycarbonylbenzyl)-5-cyano-2,4-pyrimidinediamine]			< 5.00	< 5.00
COC(=O)c1ccc(CNc2nc(Nc3ccc4c(c3)OCCO4)ncc2C#N)cc1 [Compound R925820, 5-Cyano-N2-(3,4-ethylenedioxyphenyl)-N4-(methoxycarbonylbenzyl)-2,4-pyrimidinediamine]			< 5.00	< 5.00
COC(=O)c1ccc(CNc2nc(Nc3cccc(O)c3)ncc2C#N)cc1 [Compound R925821, 5-Cyano-N2-(3-hydroxyphenyl)-N4-(methoxycarbonylbenzyl)-2,4-pyrimidinediamine]			< 5.00	< 5.00
C=CCNc1ncc(Br)c(Nc2cccc(O)c2)n1 [Compound R925822, N2-Allyl-5-bromo-N4-(3-hydroxyphenyl)-2,4-pyrimidinediamine]	< 5.00	< 5.00		
C=CCNc1ncc(F)c(Nc2ccc3c(c2)OCCO3)n1 [Compound R925823, N2-Allyl-N4-(3,4-ethylenedioxyphenyl)-5-fluoro-2,4-pyrimidinediamine]	< 5.00	< 5.00		
CCOC(=O)c1cnc(Nc2cccc(O)c2)nc1NOCc1ccccc1 [Compound R925824, N4-Benzyloxy-5-ethoxycarbonyl-N2-(3-hydroxyphenyl)-2,4-pyrimidinediamine]	< 5.00	< 5.00		
CCOC(=O)c1cnc(Nc2ccc3c(c2)OCCO3)nc1NOCc1ccccc1 [Compound R925837, N4-Benzyloxy-5-ethoxycarbonyl-N2-(3,4-ethylenedioxyphenyl)-2,4-pyrimidinediamine]	< 5.00	< 5.00		
CCOC(=O)c1nc(Nc2cccc(O)c2)nc(Nc2cccc(O)c2)c1[N+](=O)[O-] [Compound R925849, N2,N4-Bis(3-hydroxyphenyl)-6-ethoxycarbonyl-5-nitro-2,4-pyrimidinediamine]	5.09	< 5.00		

From US10828301B2, “2,4-pyrimidinediamine compounds and their uses” (Rigel Pharmaceuticals, Inc, priority 2002, dated 2020)
